Tests used:
SbnA [1] = molecular target: SbnA (Staphylococcus aureus, UniProt A6QDA0); test: coupled inorganic phosphate release assay; type: biochemical
SbnA [2] = molecular target: SbnA (Staphylococcus aureus, UniProt A6QDA0, S185G); test: biochemical
SbnA [3] = molecular target: SbnA (Staphylococcus aureus, UniProt A6QDA0, S185G/Y152F); test: biochemical

Compound: N[C@@H](CS)C(=O)O [L-cysteine]
- Ki (SbnA [1]): 91 ± 16 µM
- Ki (SbnA [2]): 2100 ± 500 µM
- Kd (SbnA [3]): 8900 ± 3200 µM

From article PMC5084695 (Biochemistry, 2016)
